Data published in patent US20230210831A1, “CHRONIC KIDNEY DISEASE TREATMENT OR PREVENTION METHOD” (Japan Tobacco Inc., priority 2019, published 2023).

Assays:
Assay type in all cases: cell-based
[1] = system: Salmonella typhimurium TA1535; test: Ames test (reverse mutation test), TA1535
Protocol: (§1) The solvent used herein was dimethyl sulfoxide (DMSO, 100 µL/plate).
(§2) The mixtures were preincubated at 37° C. for 20 minutes while shaking. […] Two plates per treatment were used.

[2] = system: Salmonella typhimurium TA1537; test: Ames test (reverse mutation test), TA1537
Protocol: as §1, §2

Escherichia coli WP2uvrA = test: Ames test (reverse mutation test), WP2uvrA
Protocol: as §1, §2

[3] = system: Salmonella typhimurium TA98; test: Ames test (reverse mutation test), TA98
Protocol: as §1, §2

[4] = system: Salmonella typhimurium TA100; test: Ames test (reverse mutation test), TA100
Protocol: as §1, §2

Q: Which “Number of revertant colonies TA1535” value ([1]; S9 Mix +, dose 1667 µg/plate) does the source give for Cc1ccc(-n2nc(N)cc2-c2cccc(OCC(F)(F)F)c2)cc1 [Metabolite F] here?
A: Its value is 0.

Q: What about the “Number of revertant colonies TA1535” value ([1]; S9 Mix -, dose 556 µg/plate) of the same compound?
A: Its value is 0.

Q: And the “Number of revertant colonies TA1535” value ([1]; S9 Mix -, dose 1667 µg/plate)?
A: Its value is 0.

Q: And the “Number of revertant colonies TA1537” value ([2]; S9 Mix +, dose 2.3 µg/plate)?
A: The value was 41.

Q: What about the “Number of revertant colonies TA1537” value ([2]; S9 Mix +, dose 6.9 µg/plate) of the same compound?
A: Its value is 92.

Q: What about the “Number of revertant colonies TA1537” value ([2]; S9 Mix +, dose 21 µg/plate) of the same compound?
A: The value was 157.

Q: What about the “Number of revertant colonies TA1537” value ([2]; S9 Mix +, dose 62 µg/plate) of the same compound?
A: The value was 227.

Q: What about the “Number of revertant colonies TA1537” value ([2]; S9 Mix +, dose 185 µg/plate) of the same compound?
A: Its value is 151.

Q: What about the “Number of revertant colonies TA1537” value ([2]; S9 Mix +, dose 556 µg/plate) of the same compound?
A: Its value is 54.

Q: And the “Number of revertant colonies TA1537” value ([2]; S9 Mix +, dose 1667 µg/plate)?
A: The value was 39.

Q: What about the “Number of revertant colonies TA1537” value ([2]; S9 Mix +, dose 5000 µg/plate) of the same compound?
A: Its value is 3.

Q: And the “Number of revertant colonies TA1537” value ([2]; S9 Mix -, dose 2.3 µg/plate)?
A: Its value is 9.

Q: What about the “Number of revertant colonies TA1537” value ([2]; S9 Mix -, dose 6.9 µg/plate) of the same compound?
A: The value was 16.

Q: And the “Number of revertant colonies TA1537” value ([2]; S9 Mix -, dose 21 µg/plate)?
A: Its value is 16.

Q: What about the “Number of revertant colonies TA1537” value ([2]; S9 Mix -, dose 62 µg/plate) of the same compound?
A: The value was 10.

Q: What about the “Number of revertant colonies TA1537” value ([2]; S9 Mix -, dose 185 µg/plate) of the same compound?
A: Its value is 3.

Q: What about the “Number of revertant colonies TA1537” value ([2]; S9 Mix -, dose 556 µg/plate) of the same compound?
A: Its value is 0.

Q: What about the “Number of revertant colonies TA1537” value ([2]; S9 Mix -, dose 1667 µg/plate) of the same compound?
A: Its value is 0.

Q: And the “Number of revertant colonies TA1537” value ([2]; S9 Mix -, dose 5000 µg/plate)?
A: Its value is 0.

Q: What about the “potential to induce reverse mutations” value ([2]; TA1537 with S9 mix) of the same compound?
A: Its value is “showed potential to induce reverse mutations”.

Q: And the “Number of revertant colonies WP2uvrA” value (Escherichia coli WP2uvrA; S9 Mix +, dose 2.3 µg/plate)?
A: Its value is 25.

Q: What about the “Number of revertant colonies WP2uvrA” value (Escherichia coli WP2uvrA; S9 Mix +, dose 6.9 µg/plate) of the same compound?
A: Its value is 20.

Q: What about the “Number of revertant colonies WP2uvrA” value (Escherichia coli WP2uvrA; S9 Mix +, dose 21 µg/plate) of the same compound?
A: The value was 30.

Q: What about the “Number of revertant colonies WP2uvrA” value (Escherichia coli WP2uvrA; S9 Mix +, dose 62 µg/plate) of the same compound?
A: Its value is 24.

Q: What about the “Number of revertant colonies WP2uvrA” value (Escherichia coli WP2uvrA; S9 Mix +, dose 185 µg/plate) of the same compound?
A: The value was 20.

Q: What about the “Number of revertant colonies WP2uvrA” value (Escherichia coli WP2uvrA; S9 Mix +, dose 556 µg/plate) of the same compound?
A: The value was 24.

Q: What about the “Number of revertant colonies WP2uvrA” value (Escherichia coli WP2uvrA; S9 Mix +, dose 1667 µg/plate) of the same compound?
A: Its value is 16.

Q: And the “Number of revertant colonies WP2uvrA” value (Escherichia coli WP2uvrA; S9 Mix +, dose 5000 µg/plate)?
A: The value was 6.

Q: What about the “Number of revertant colonies WP2uvrA” value (Escherichia coli WP2uvrA; S9 Mix -, dose 2.3 µg/plate) of the same compound?
A: The value was 24.

Q: And the “Number of revertant colonies WP2uvrA” value (Escherichia coli WP2uvrA; S9 Mix -, dose 6.9 µg/plate)?
A: Its value is 23.

Q: What about the “Number of revertant colonies WP2uvrA” value (Escherichia coli WP2uvrA; S9 Mix -, dose 21 µg/plate) of the same compound?
A: Its value is 26.

Q: What about the “Number of revertant colonies WP2uvrA” value (Escherichia coli WP2uvrA; S9 Mix -, dose 62 µg/plate) of the same compound?
A: The value was 19.

Q: And the “Number of revertant colonies WP2uvrA” value (Escherichia coli WP2uvrA; S9 Mix -, dose 185 µg/plate)?
A: The value was 13.

Q: And the “Number of revertant colonies WP2uvrA” value (Escherichia coli WP2uvrA; S9 Mix -, dose 556 µg/plate)?
A: Its value is 74.

Q: What about the “Number of revertant colonies WP2uvrA” value (Escherichia coli WP2uvrA; S9 Mix -, dose 1667 µg/plate) of the same compound?
A: Its value is 8.

Q: What about the “Number of revertant colonies WP2uvrA” value (Escherichia coli WP2uvrA; S9 Mix -, dose 5000 µg/plate) of the same compound?
A: The value was 5.

Q: What about the “potential to induce reverse mutations” value (Escherichia coli WP2uvrA; WP2uvrA without S9 mix) of the same compound?
A: The value was “showed potential to induce reverse mutations”.

Q: And the “Number of revertant colonies TA98” value ([3]; S9 Mix +, dose 2.3 µg/plate)?
A: Its value is 93.

Q: And the “Number of revertant colonies TA98” value ([3]; S9 Mix +, dose 6.9 µg/plate)?
A: The value was 218.

Q: And the “Number of revertant colonies TA98” value ([3]; S9 Mix +, dose 21 µg/plate)?
A: The value was 522.

Q: And the “Number of revertant colonies TA98” value ([3]; S9 Mix +, dose 62 µg/plate)?
A: The value was 484.

Q: And the “Number of revertant colonies TA98” value ([3]; S9 Mix +, dose 185 µg/plate)?
A: The value was 287.

Q: And the “Number of revertant colonies TA98” value ([3]; S9 Mix +, dose 556 µg/plate)?
A: Its value is 151.

Q: What about the “Number of revertant colonies TA98” value ([3]; S9 Mix +, dose 1667 µg/plate) of the same compound?
A: The value was 61.

Q: What about the “Number of revertant colonies TA98” value ([3]; S9 Mix +, dose 5000 µg/plate) of the same compound?
A: Its value is 0.

Q: And the “Number of revertant colonies TA98” value ([3]; S9 Mix -, dose 2.3 µg/plate)?
A: The value was 25.

Q: And the “Number of revertant colonies TA98” value ([3]; S9 Mix -, dose 6.9 µg/plate)?
A: The value was 32.

Q: What about the “Number of revertant colonies TA98” value ([3]; S9 Mix -, dose 21 µg/plate) of the same compound?
A: The value was 21.

Q: And the “Number of revertant colonies TA98” value ([3]; S9 Mix -, dose 62 µg/plate)?
A: Its value is 21.

Q: And the “Number of revertant colonies TA98” value ([3]; S9 Mix -, dose 185 µg/plate)?
A: The value was 20.

Q: What about the “Number of revertant colonies TA98” value ([3]; S9 Mix -, dose 556 µg/plate) of the same compound?
A: Its value is 19.

Q: And the “Number of revertant colonies TA98” value ([3]; S9 Mix -, dose 1667 µg/plate)?
A: Its value is 6.

Q: What about the “Number of revertant colonies TA98” value ([3]; S9 Mix -, dose 5000 µg/plate) of the same compound?
A: The value was 0.

Q: And the “potential to induce reverse mutations” value ([3]; TA98 with S9 mix)?
A: Its value is “showed potential to induce reverse mutations”.

Q: What about the “Number of revertant colonies TA100” value ([4]; S9 Mix +, dose 2.3 µg/plate) of the same compound?
A: Its value is 553.

Q: And the “Number of revertant colonies TA100” value ([4]; S9 Mix +, dose 6.9 µg/plate)?
A: The value was 1417.

Q: What about the “Number of revertant colonies TA100” value ([4]; S9 Mix +, dose 21 µg/plate) of the same compound?
A: Its value is 2888.

Q: What about the “Number of revertant colonies TA100” value ([4]; S9 Mix +, dose 62 µg/plate) of the same compound?
A: The value was 3713.

Q: What about the “Number of revertant colonies TA100” value ([4]; S9 Mix +, dose 185 µg/plate) of the same compound?
A: The value was 2889.

Q: What about the “Number of revertant colonies TA100” value ([4]; S9 Mix +, dose 556 µg/plate) of the same compound?
A: Its value is 1288.

Q: And the “Number of revertant colonies TA100” value ([4]; S9 Mix +, dose 1667 µg/plate)?
A: The value was 1576.

Q: What about the “Number of revertant colonies TA100” value ([4]; S9 Mix +, dose 5000 µg/plate) of the same compound?
A: The value was 1160.

Q: What about the “Number of revertant colonies TA100” value ([4]; S9 Mix -, dose 2.3 µg/plate) of the same compound?
A: The value was 107.

Q: What about the “Number of revertant colonies TA100” value ([4]; S9 Mix -, dose 6.9 µg/plate) of the same compound?
A: Its value is 104.

Q: What about the “Number of revertant colonies TA100” value ([4]; S9 Mix -, dose 21 µg/plate) of the same compound?
A: The value was 115.

Q: And the “Number of revertant colonies TA100” value ([4]; S9 Mix -, dose 62 µg/plate)?
A: Its value is 109.

Q: What about the “Number of revertant colonies TA100” value ([4]; S9 Mix -, dose 185 µg/plate) of the same compound?
A: The value was 93.

Q: What about the “Number of revertant colonies TA100” value ([4]; S9 Mix -, dose 556 µg/plate) of the same compound?
A: Its value is 62.

Q: What about the “Number of revertant colonies TA100” value ([4]; S9 Mix -, dose 1667 µg/plate) of the same compound?
A: The value was 58.

Q: What about the “Number of revertant colonies TA100” value ([4]; S9 Mix -, dose 5000 µg/plate) of the same compound?
A: Its value is 40.

Q: And the “potential to induce reverse mutations” value ([4]; TA100 with S9 mix)?
A: The value was “showed potential to induce reverse mutations”.
